{
  "source": "patent US20230390265A1",
  "about": "“IRAK4 Inhibitors and Topical Uses Thereof” (Dermira, Inc., priority 2020, published 2023)",
  "test_system": "TNFα protein expression",
  "assay": "Skin resident immune cell assay (sRICA), LPS-stimulated human skin, TNFα protein",
  "format": "cell-based",
  "conditions": "positive control, applied topically",
  "protocol": "The anti-inflammatory activity of the IRAK4/TrkA inhibitors was determined in a skin resident immune cell assay (sRICA). In this model, human surgical skin waste was cultured in a transwell system, with the dermis in contact with cell culture media and the stratum corneum exposed to air. To perform the assay, each human skin sample was defatted and dermatomed to 750 μm. Next, 8 mm punch biopsies were obtained and placed in a membrane transwell. The biopsies were prepared with a barrier ring to contain the formulation and prevent leakage of the formulation. The transwells were inserted into culture wells with complete media, and a cocktail of cytokines and antibodies and/or inflammatory stimuli were added to promote skin resident immune cell polarization and/or elicitation of a specific inflammatory response. The transwells were treated with LPS as a positive control, a vehicle as a negative control, and various dual IRAK/TrkA inhibitors. TNFα protein expression was measured and the mean TNFα protein level in the LPS treated samples was set to 100%.\nThe Compounds were formulated at 80% saturated solubility. […]\nExcept for the 0.5% Compound 1/NAG6 formulations, all Round 2 formulations were manufactured at 80% saturation. […] Conditioned cell media was collected and assessed for expression of inflammatory proteins after 48 hours of exposure to LPS stimulation.",
  "note": "Entries after “also recorded” stand apart in the source; their conditions may differ.",
  "data": [
    {"compound": "CCC(=O)O[C@]1(C(=O)CCl)[C@@H](C)C[C@H]2[C@@H]3CCC4=CC(=O)C=C[C@]4(C)[C@@]3(F)[C@@H](O)C[C@@]21C", "note": "[Clobetasol]", "values": [
      {"measurement": "Effect on LPS-induced TNFα production / inflammation", "value": "significantly reduced inflammation back to baseline levels; also recorded: completely inhibited TNFα induction"}
    ]}
  ]
}
